Assay results reported in ChEMBL document CHEMBL4257535, “Design, synthesis and biological evaluation of AKT inhibitors bearing a piperidin-4-yl appendant” (Medchemcomm, 2018).
Calls of active or inactive are those of the source. The rule behind the calls is not given here.

Assays:
PC-3 = assay: Antiproliferative activity against human PC3 cells after 72 hrs by MTT assay; assay type: functional, cell-based; details: PC-3, 72 h
[1] = target: T1, RAC-alpha serine/threonine-protein kinase (Homo sapiens, UniProt P31749); assay: Inhibition of AKT1 (unknown origin) using biotin-labelled STK as substrate measured after 45 mins by HTRF method
T1 sequence (P31749 whole entry): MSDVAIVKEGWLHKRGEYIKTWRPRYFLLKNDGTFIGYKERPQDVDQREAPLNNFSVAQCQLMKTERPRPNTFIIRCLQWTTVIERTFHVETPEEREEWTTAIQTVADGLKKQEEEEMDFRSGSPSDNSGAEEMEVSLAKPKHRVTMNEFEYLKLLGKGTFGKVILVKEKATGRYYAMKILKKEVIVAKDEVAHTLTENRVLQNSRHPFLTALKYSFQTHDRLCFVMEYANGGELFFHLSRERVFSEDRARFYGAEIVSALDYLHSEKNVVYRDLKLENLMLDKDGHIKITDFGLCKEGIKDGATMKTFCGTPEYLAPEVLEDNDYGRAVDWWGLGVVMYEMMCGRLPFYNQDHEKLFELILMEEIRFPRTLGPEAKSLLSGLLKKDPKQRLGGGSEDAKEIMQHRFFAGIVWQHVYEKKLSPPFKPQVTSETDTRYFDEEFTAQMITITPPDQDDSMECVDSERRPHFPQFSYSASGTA

[2] = target: T1, RAC-alpha serine/threonine-protein kinase; assay: Inhibition of AKT1 (unknown origin) at 0.1 uM using biotin-labelled STK as substrate measured after 45 mins by HTRF method relative to control
[3] = target: T1, RAC-alpha serine/threonine-protein kinase; assay: Inhibition of AKT1 (unknown origin) at 1 uM using biotin-labelled STK as substrate measured after 45 mins by HTRF method relative to control
in vitro [4] = assay: in vitro; parameters: dose or concentration left out as unconfirmed; details: human, liver microsomes
Description: Half life in human liver microsomes at 10 mM preincubated for 10 mins followed by NADPH addition by LC-MS analysis

in vitro [5] = assay: in vitro; parameters: dose or concentration left out as unconfirmed; details: human, liver microsomes; remark: listed apart in the source
Description: Intrinsic clearance in human liver microsomes at 10 mM preincubated for 10 mins followed by NADPH addition and measured after 5 to 60 mins by LC-MS analysis

in vitro [6] = assay: in vitro; parameters: dose or concentration left out as unconfirmed; details: human, liver microsomes; remark: listed apart in the source
Description: Stability in human liver microsomes assessed as parent compound remaining at 10 mM preincubated for 10 mins followed by NADPH addition and measured after 60 mins by LC-MS analysis

[7] = target: T1, RAC-alpha serine/threonine-protein kinase; assay: Inhibition of AKT1 (unknown origin) at 50 nM using biotin-labelled STK as substrate measured after 45 mins by HTRF method relative to control
[8] = target: T1, RAC-alpha serine/threonine-protein kinase; assay: Inhibition of AKT in human PC3 cells assessed as reduction in GSK3beta phosphorylation at 1 to 10 uM after 4 hrs by Western blot analysis; assay type: cell-based

| Structure (SMILES) | IC50 (PC-3) | inhibition [2] | inhibition [3] | further results |
| --- | --- | --- | --- | --- |
| O=C(N1CCN(c2ncnc3[nH]nc(Br)c23)CC1)C1(c2ccc(Cl)c(Cl)c2)CCNCC1 | 10.3 µM | 90.9% | 93.8% | IC50 [1]: 0.0305 µM |
| O=C(N1CCN(c2ncnc3ccccc23)CC1)C1(c2ccc(Cl)c(Cl)c2)CCNCC1 | 14 µM | – | 21.9% | – |
| O=C(N1CCN(c2ncnc3[nH]cnc23)CC1)C1(c2ccc(Cl)c(Cl)c2)CCNCC1 | 33.9 µM | – | 51.4% | – |
| O=C(N1CCN(c2ncnc3[nH]nc(Br)c23)CC1)C1(c2ccc(F)cc2)CCNCC1 | 36.6 µM | 53.3% | 93.2% | – |
| O=C(N1CCN(c2ncnc3[nH]ncc23)CC1)C1(c2ccc(F)cc2)CCNCC1 | > 40 µM | – | 7.4% | – |
| O=C(N1CCN(c2ncnc3[nH]nc(Cl)c23)CC1)C1(c2ccc(Br)cc2)CCNCC1 | 32.4 µM | 84.5% | 95.4% | IC50 [1]: 0.0329 µM |
| O=C(N1CCN(c2ncnc3[nH]nc(Cl)c23)CC1)C1(c2ccc(Cl)cc2)CCNCC1 | 19.4 µM | 83.4% | 91.9% | IC50 [1]: 0.0666 µM |
| C[C@]12CC[C@H]3[C@@H](CCC4=CC(=O)CC[C@@]43C)[C@@H]1CC[C@@H]2O [TESTOSTERONE] | – | – | – | half-life (in vitro [4]): 16.9 min; CLint scaled (in vitro [5]): 74 mL/min/kg; microsomal CLint (in vitro [5]): 82.2 µL/min/mg; remaining at 1 h (in vitro [6]): 8.1% |
| O=C(Cc1ccc(Cl)cc1)N1CCN(c2ncnc3[nH]cc(Br)c23)CC1 | 21.1 µM | – | – | inhibition [7]: 69.7% |
| O=C(N1CCN(c2ncnc3ccccc23)CC1)C1(c2ccc(Cl)cc2)CCNCC1 | > 40 µM | – | 34.2% | – |
| CCn1c(-c2nonc2N)nc2c(C#CC(C)(C)O)ncc(OC[C@H]3CCCNC3)c21 [GSK-690693] | 14.1 µM | 98.5% | 99.5% | inhibition [8]: Active |
| O=C(N1CCN(c2ncnc3[nH]nc(Br)c23)CC1)C1(c2ccc(Br)cc2)CCNCC1 | 15 µM | 90.6% | 96.5% | IC50 [1]: 0.0519 µM |
| O=C(O)Cc1ccccc1Nc1c(Cl)cccc1Cl [DICLOFENAC] | – | – | – | half-life (in vitro [4]): 10.2 min; CLint scaled (in vitro [5]): 123 mL/min/kg; microsomal CLint (in vitro [5]): 136 µL/min/mg |
| O=C(N1CCN(c2ncnc3[nH]cnc23)CC1)C1(c2ccc(F)cc2)CCNCC1 | > 40 µM | – | 94.2% | – |
| O=C(N1CCN(c2ncnc3ccccc23)CC1)C1(c2ccc(Br)cc2)CCNCC1 | 22.8 µM | – | 6.1% | – |
| O=C(N1CCN(c2ncnc3[nH]ncc23)CC1)C1(c2ccc(Br)cc2)CCNCC1 | > 40 µM | – | 11.6% | – |
| O=C(N1CCN(c2ncnc3[nH]nc(Br)c23)CC1)C1(c2ccc(Cl)cc2)CCNCC1 | 9.8 µM | 86.7% | 96.7% | IC50 [1]: 0.0269 µM |
| O=C(N1CCN(c2ncnc3[nH]nc(Cl)c23)CC1)C1(c2ccc(F)cc2)CCNCC1 | 37.4 µM | 60.9% | 86.7% | – |
| O=C(N1CCN(c2ncnc3[nH]ncc23)CC1)C1(c2ccc(Cl)c(Cl)c2)CCNCC1 | > 40 µM | – | 52.1% | – |
| O=C(N1CCN(c2ncnc3[nH]ncc23)CC1)C1(c2ccc(Cl)cc2)CCNCC1 | > 40 µM | – | 38.7% | – |
| O=C(N1CCN(c2ncnc3[nH]cnc23)CC1)C1(c2ccc(Cl)cc2)CCNCC1 | > 40 µM | – | 45.6% | – |
| O=C(N1CCN(c2ncnc3[nH]cnc23)CC1)C1(c2ccc(Br)cc2)CCNCC1 | > 40 µM | – | 68% | – |
| O=C(Cc1ccc(Cl)c(Cl)c1)N1CCN(c2ncnc3[nH]cc(Br)c23)CC1 | 31.5 µM | – | – | inhibition [7]: 65.5% |
| O=C(N1CCN(c2ncnc3ccccc23)CC1)C1(c2ccc(F)cc2)CCNCC1 | 13.7 µM | – | 23% | – |
